Patent publication US11034725B2, “Compositions and methods for treating cardiovascular disease” (Genentech, Inc., priority 2016, dated 2021)
Like-named read-outs stand apart in the source and are kept apart here. Bridge positions count the residues as written; N and C are the ends. Square brackets hold non-standard residues; d marks the D form. Peptide text beside a SMILES is read from it. * marks the point of attachment. hArg = N=C(N)NCCCC[C@H](N)C(=O)O; Pentanoyl = CCCCC(=O)*; Butyryl = CCCC(=O)*

Key:
PCSK9Δhelix = biological target: T1, PCSK9Δhelix (Homo sapiens, UniProt Q8NBP7); test: PCSK9Δhelix/Ab20 TR-FRET binding assay; settings: for IC50: TR-FRET, read-out: PCSK9Δhelix/Ab20 IC50
T1 construct: Human PCSK9 construct M1-Q692 with an engineered TEV site (residue deletion Y166, R167); made in house; host or cells: CHO
T1 sequence (Q8NBP7 with tags, fused parts or gaps limits assumed): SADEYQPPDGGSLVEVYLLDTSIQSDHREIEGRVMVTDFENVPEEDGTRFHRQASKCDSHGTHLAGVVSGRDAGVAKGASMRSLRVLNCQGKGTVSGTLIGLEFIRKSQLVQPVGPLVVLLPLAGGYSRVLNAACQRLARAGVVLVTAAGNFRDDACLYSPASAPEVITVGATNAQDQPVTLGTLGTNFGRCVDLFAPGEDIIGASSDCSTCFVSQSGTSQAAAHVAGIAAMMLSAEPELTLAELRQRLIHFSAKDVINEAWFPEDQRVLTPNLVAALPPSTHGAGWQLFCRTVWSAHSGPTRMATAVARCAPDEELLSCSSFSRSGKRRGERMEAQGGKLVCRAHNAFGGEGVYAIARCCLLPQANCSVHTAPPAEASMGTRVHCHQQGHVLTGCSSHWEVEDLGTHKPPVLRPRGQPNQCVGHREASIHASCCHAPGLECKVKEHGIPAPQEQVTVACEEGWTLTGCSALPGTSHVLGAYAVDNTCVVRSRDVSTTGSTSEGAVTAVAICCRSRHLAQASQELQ
T1 sequence (Q8NBP7 31-152 partner limits assumed): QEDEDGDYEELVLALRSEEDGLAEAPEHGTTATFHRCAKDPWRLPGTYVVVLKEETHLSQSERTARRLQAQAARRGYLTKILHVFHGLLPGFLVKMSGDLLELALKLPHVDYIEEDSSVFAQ
Experimental: The former was based on a TF-FRET assay to measure the association of the EGF(A) domain of the LDLR to PCSK9 (“PCSK9/EGF(A) binding assay”) whilst the latter was based on a TR-FRET assay to measure binding of Ab20 to PCSK9Δhelix (“PCSK9Δhelix/Ab20 binding assay”).
The ability of compounds to inhibit binding to PCSK9 was evaluated with a panel of time-resolved fluorescence resonance energy transfer (TR-FRET) binding assays. […] The PCSK9Δhelix/Ab20 binding assay evaluated the ability of compounds to compete with Ab20 for binding to the N-terminal groove region in a His-tagged, PCSK9Δhelix construct. […] Signal generation in the PCSK9 binding assays was dependent upon the binding interaction to bring into close proximity the His-tag on the PCSK9 and the Fc-tag on the ligand. Anti-His-APC was bound to the His-tag, and anti-Fc-europium was bound to the Fc-tag. When these two antibodies were in close proximity and were irradiated with light at 340 nm, the europium was excited and emitted energy at 615 nm. This energy was taken up by the APC and was emitted as light at 665 nm. Compounds that competed with the ligand reduced the energy transfer and thus the emission at 665 nm. In the His-EGFA-Fc molecule in the counterscreen, the two tags were always in close proximity, thus any reduction in emission at 665 nm was due to interference with the detection system.
Compounds were solubilized and dilutions were prepared in DMSO. […] The plate was centrifuged to mix the well contents and allowed to incubate for 30 min. […] The TR-FRET signal was read on a ViewLux reader (PerkinElmer) with excitation at 340 nm and emission at 615 and 665 nm with a 50-μs time delay between excitation and measurement of emission. The TR-FRET ratio was calculated as the fluorescence emission at 665 nm divided by the fluorescence emission at 615 nm. The normalized TR-FRET ratios were plotted as a function of the compound concentrations, and the IC50 values were determined using a 4-parameter logistic regression.
In black 1536-well assay plates (MaKO, Aurora® Microplates, Whitefish, Mont.), 40 nL of peptide in DMSO were preincubated with 2 μL His-tagged PCSK9 plus anti-His-allophycocyanin in assay buffer (50 mM Tris-HCl, pH 7.5, 150 mM NaCl, 2 mM CaCl2, 0.01% Tween®-20, 0.1% bovine gamma globulins, and protease inhibitor cocktail) for 30 min. Then 2 μL of Fc-tagged ligand and anti-Fc-europium in assay buffer were added and allowed to incubate for 2 h.

His-EGF(A)-Fc = His-EGF(A)-Fc TR-FRET counterscreen
PCSK9 = PCSK9 (Homo sapiens, UniProt Q8NBP7); test: PCSK9/EGF(A) TR-FRET binding assay; settings: for IC50: TR-FRET, read-out: PCSK9/EGF(A) IC50
PCSK9, sequence (Q8NBP7 153-692): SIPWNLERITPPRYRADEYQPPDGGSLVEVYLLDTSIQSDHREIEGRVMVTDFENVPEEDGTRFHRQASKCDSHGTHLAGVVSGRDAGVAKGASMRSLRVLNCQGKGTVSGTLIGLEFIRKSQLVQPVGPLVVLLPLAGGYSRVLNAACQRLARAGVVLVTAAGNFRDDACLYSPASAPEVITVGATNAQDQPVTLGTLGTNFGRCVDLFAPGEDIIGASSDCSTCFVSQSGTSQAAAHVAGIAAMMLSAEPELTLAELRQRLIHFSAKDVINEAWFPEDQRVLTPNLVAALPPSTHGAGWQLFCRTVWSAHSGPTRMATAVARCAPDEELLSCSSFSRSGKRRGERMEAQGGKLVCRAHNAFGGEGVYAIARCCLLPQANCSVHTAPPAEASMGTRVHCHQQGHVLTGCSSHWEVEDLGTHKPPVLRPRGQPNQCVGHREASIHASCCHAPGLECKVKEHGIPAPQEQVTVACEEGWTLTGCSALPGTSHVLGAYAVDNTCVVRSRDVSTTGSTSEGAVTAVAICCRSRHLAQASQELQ
PCSK9, sequence (Q8NBP7 31-152 partner limits assumed): as the sequence (Q8NBP7 31-152 partner limits assumed) above

[1] = Table 8D, disulfide-cyclized extension peptides
[2] = TR-FRET counterscreen, Table 8D, * = some inhibition at highest concentrations, not sufficient to fit an IC50
[3] = TR-FRET counterscreen, Table 8E, additional compounds

| Compound | IC50 (PCSK9Δhelix; [1]) | IC50 (His-EGF(A)-Fc; [2]) | IC50 (PCSK9; [1]) | also measured |
| --- | --- | --- | --- | --- |
| CC[C@H](C)[C@@H]1NC(=O)[C@H](CCCNC(=N)N)NC(=O)[C@H](CCCCN)NC(=O)[C@H](CC(C)C)NC(=O)[C@H](CC(N)=O)NC(=O)[C@H](Cc2c[nH]c3ccccc23)NC(=O)[C@@H](NC(C)=O)CSSC[C@@H](C(=O)N[C@@H](Cc2c[nH]c3ccccc23)C(N)=O)NC(=O)CNC(=O)[C@H](CCC(N)=O)NC(=O)[C@H](CO)NC(=O)CNC1=O [Compound 39] (Ac-CWNLKRIGSQGCW-NH2; disulfide 1-12) | 37.5 µM | > 50 µM | > 50 µM |  |
| Ac-DLMPWALVRIGLLR-NH2 [Compound 62] |  |  |  | IC50 (PCSK9Δhelix; Example 7): > 49.5 µM; IC50 (His-EGF(A)-Fc; counterscreen, Example 7): > 50 µM; IC50 (PCSK9; Example 7): > 50 µM |
| Ac-DLMPWNLKRIGLLR-NH2 [Compound 158] |  |  |  | IC50 (PCSK9Δhelix; Table 8E, additional compounds): 12 µM; IC50 (His-EGF(A)-Fc; [3]): ≥ 50 µM; IC50 (PCSK9; Table 8E, additional compounds): ≥ 50 µM |
| CCCC(=O)N[C@@H](Cc1c[nH]c2ccccc12)C(=O)N[C@@H](CC(N)=O)C(=O)N[C@@H](CC(C)C)C(=O)N[C@H](C(=O)N[C@@H](CCCNC(=N)N)C(=O)N[C@H](C(=O)NCC(=O)N[C@@H](CC(C)C)C(=O)N[C@@H](CC(C)C)C(=O)N[C@@H](CCCNC(=N)N)C(N)=O)[C@@H](C)CC)C(C)C [Compound 123] (Butyryl-WNLVRIGLLR-NH2) |  |  |  | IC50 (PCSK9Δhelix; Table 8E, additional compounds): 18 µM; IC50 (His-EGF(A)-Fc; [3]): ≥ 50 µM; IC50 (PCSK9; Table 8E, additional compounds): ≥ 50 µM |
| CCCCC(=O)N[C@@H](Cc1c[nH]c2ccccc12)C(=O)N[C@@H](CC(N)=O)C(=O)N[C@@H](CC(C)C)C(=O)N[C@H](C(=O)N[C@@H](CCCNC(=N)N)C(=O)N[C@H](C(=O)NCC(=O)N[C@H](C(=O)N[C@H](C(=O)N[C@@H](CCCNC(=N)N)C(N)=O)[C@@H](C)O)[C@@H](C)O)[C@@H](C)CC)C(C)C [Compound 113] (Pentanoyl-WNLVRIGTTR-NH2) |  |  |  | IC50 (PCSK9Δhelix; Example 7): > 50 µM; IC50 (His-EGF(A)-Fc; counterscreen, Example 7): > 50 µM; IC50 (PCSK9; Example 7): > 50 µM |
| CC[C@H](C)[C@@H]1NC(=O)[C@H](C)NC(=O)[C@H](CCC(N)=O)NC(=O)[C@H](CC(C)C)NC(=O)[C@H](CC(N)=O)NC(=O)[C@H](Cc2c[nH]c3ccccc23)NC(=O)[C@@H]2CCCN2C(=O)[C@H](CC(C)C)NC(=O)[C@H](CCCNC(=N)N)NC(=O)[C@@H](NC(C)=O)CSSC[C@@H](C(N)=O)NC(=O)[C@@H]2CCCN2C(=O)[C@H](CC(C)C)NC(=O)CNC1=O [Compound 72] (Ac-CRLPWNLQAIGLPC-NH2; disulfide 1-14) | 39.6 µM | > 50 µM | > 50 µM |  |
| Ac-TVFTSWEEYLDWVGSGKLWNLGRV-NH2 [Compound 1] |  |  |  | inhibition in the PCSK9Δhelix/Ab20 binding assay (PCSK9Δhelix): superior activity; IC50 (PCSK9Δhelix; Example 7): 0.021 µM; IC50 (His-EGF(A)-Fc; counterscreen, Example 7): > 50 µM; inhibition in the PCSK9/EGF(A) binding assay (PCSK9): comparable activity to Pep2-8 |
| CCCCC(=O)N[C@@H](Cc1c[nH]c2ccccc12)C(=O)N[C@@H](CC(N)=O)C(=O)N[C@@H](CC(C)C)C(=O)N[C@H](C(=O)N[C@@H](CCCCNC(=N)N)C(=O)N[C@H](C(=O)NCC(=O)N[C@@H](CC(C)C)C(=O)N[C@H](C(=O)N[C@@H](CCCNC(=N)N)C(=O)O)[C@@H](C)O)[C@@H](C)CC)C(C)C [Compound 235, n-BuC(O)-WNLV(homoR)IGLTR] (Pentanoyl-WNLV[hArg]IGLTR-OH) |  |  |  | IC50 (PCSK9Δhelix; Table 8E, additional compounds): 2.7 µM; IC50 (His-EGF(A)-Fc; [3]): ≥ 50 µM; IC50 (PCSK9; Table 8E, additional compounds): ≥ 50 µM |
| CC[C@H](C)[C@@H]1NC(=O)[C@H](CCCNC(=N)N)NC(=O)[C@H](CCC(N)=O)NC(=O)[C@H](CC(C)C)NC(=O)[C@H](CC(N)=O)NC(=O)[C@H](Cc2c[nH]c3ccccc23)NC(=O)[C@@H]2CCCN2C(=O)[C@H](CC(C)C)NC(=O)[C@H](C)NC(=O)[C@@H](NC(C)=O)CSSC[C@@H](C(N)=O)NC(=O)[C@@H]2CCCN2C(=O)[C@H](CC(C)C)NC(=O)CNC1=O [Compound 79] (Ac-CALPWNLQRIGLPC-NH2; disulfide 1-14) | 1.53 µM | > 50 µM | > 50 µM |  |
| CC[C@H](C)[C@@H]1NC(=O)[C@H](CCCNC(=N)N)NC(=O)[C@H](CCC(N)=O)NC(=O)[C@H](CC(C)C)NC(=O)[C@H](CC(N)=O)NC(=O)[C@H](Cc2c[nH]c3ccccc23)NC(=O)[C@@H]2CCCN2C(=O)[C@H](CC(C)C)NC(=O)[C@H](CCCNC(=N)N)NC(=O)[C@@H](NC(C)=O)CSSC[C@@H](C(N)=O)NC(=O)[C@H]2CCCN2C(=O)[C@H](CC(C)C)NC(=O)CNC1=O [Compound 99] (Ac-CRLPWNLQRIGL[dP]C-NH2; disulfide 1-14) | 1.3 µM | > 50 µM | > 50 µM |  |
| CC[C@H](C)[C@@H]1NC(=O)[C@H](CCCNC(=N)N)NC(=O)[C@H](CCC(N)=O)NC(=O)[C@@H](CC(C)C)NC(=O)[C@H](CC(N)=O)NC(=O)[C@H](Cc2c[nH]c3ccccc23)NC(=O)[C@@H]2CCCN2C(=O)[C@H](CC(C)C)NC(=O)[C@H](CCCNC(=N)N)NC(=O)[C@@H](NC(C)=O)CSSC[C@@H](C(N)=O)NC(=O)[C@@H]2CCCN2C(=O)[C@H](CC(C)C)NC(=O)CNC1=O [Compound 104, Ac-CRLPWNlQRIGLPC-NH2] (Ac-CRLPWN[dL]QRIGLPC-NH2; disulfide 1-14) | > 50 µM | > 50 µM | > 50 µM |  |
| CC[C@H](C)[C@@H]1NC(=O)[C@H](CCCNC(=N)N)NC(=O)[C@H](CCC(N)=O)NC(=O)[C@H](CC(C)C)NC(=O)[C@H](CC(N)=O)NC(=O)[C@H](Cc2c[nH]c3ccccc23)NC(=O)[C@@H]2CCCN2C(=O)[C@H](C)NC(=O)[C@H](CCCNC(=N)N)NC(=O)[C@@H](NC(C)=O)CSSC[C@@H](C(N)=O)NC(=O)[C@@H]2CCCN2C(=O)[C@H](CC(C)C)NC(=O)CNC1=O [Compound 78] (Ac-CRAPWNLQRIGLPC-NH2; disulfide 1-14) | 5.56 µM | > 50 µM | > 50 µM |  |
| Ac-TVFTSWEEYLDWVGSGKLWN-NH2 [Compound 7] |  |  |  | IC50 (PCSK9Δhelix; Example 7): 18.6 µM; IC50 (His-EGF(A)-Fc; counterscreen, Example 7): > 50 µM; IC50 (PCSK9; Example 7): 0.5 µM |
| CC[C@H](C)[C@@H]1NC(=O)[C@H](CCCNC(=N)N)NC(=O)[C@H](CCCCN)NC(=O)[C@H](CC(C)C)NC(=O)[C@H](CC(N)=O)NC(=O)[C@H](Cc2c[nH]c3ccccc23)NC(=O)[C@H](CC(C)C)NC(=O)[C@@H](NC(=O)[C@H](CC(=O)O)NC(C)=O)CSSC[C@@H](C(=O)N[C@@H](CCC(=O)O)C(=O)N[C@@H](Cc2ccc(O)cc2)C(N)=O)NC(=O)[C@H](CCC(N)=O)NC(=O)[C@H](CO)NC(=O)CNC1=O [Compound 64] (Ac-DCLWNLKRIGSQCEY-NH2; disulfide 2-13) | > 50 µM | > 50 µM | > 50 µM |  |
| CC[C@H](C)[C@@H]1NC(=O)[C@H](CCCNC(=N)N)NC(=O)[C@H](C)NC(=O)[C@H](CC(C)C)NC(=O)[C@H](CC(N)=O)NC(=O)[C@H](Cc2c[nH]c3ccccc23)NC(=O)[C@H](CC(C)C)NC(=O)[C@@H](NC(=O)[C@H](Cc2ccccc2)NC(C)=O)CSSC[C@@H](C(=O)N[C@@H](Cc2c[nH]c3ccccc23)C(=O)N[C@@H](Cc2ccccc2)C(N)=O)NC(=O)[C@H](CCC(N)=O)NC(=O)[C@H](CO)NC(=O)CNC1=O [Compound 88] (Ac-FCLWNLARIGSQCWF-NH2; disulfide 2-13) | 7.46 µM | > 50 µM |  | IC50 (PCSK9; Example 7): 17.9 µM |
| CC[C@H](C)[C@@H]1NC(=O)[C@H](CCCNC(=N)N)NC(=O)[C@H](CCC(N)=O)NC(=O)[C@H](CC(C)C)NC(=O)[C@H](CC(N)=O)NC(=O)[C@H](Cc2c[nH]c3ccccc23)NC(=O)[C@@H]2CCCN2C(=O)[C@H](CC(C)C)NC(=O)[C@H](CCCNC(=N)N)NC(=O)[C@@H](NC(C)=O)CSSC[C@@H](C(N)=O)NC(=O)[C@@H]2CCCN2C(=O)[C@@H](CC(C)C)NC(=O)CNC1=O [Compound 100] (Ac-CRLPWNLQRIG[dL]PC-NH2; disulfide 1-14) | > 50 µM | > 50 µM | > 50 µM |  |
| CC[C@H](C)[C@@H]1NC(=O)[C@H](CCCNC(=N)N)NC(=O)[C@H](CCC(N)=O)NC(=O)[C@H](CC(C)C)NC(=O)[C@H](CC(N)=O)NC(=O)[C@H](Cc2c[nH]c3ccccc23)NC(=O)[C@@H]2CCCN2C(=O)[C@H](CC(C)C)NC(=O)[C@@H](CCCNC(=N)N)NC(=O)[C@@H](NC(C)=O)CSSC[C@@H](C(N)=O)NC(=O)[C@@H]2CCCN2C(=O)[C@H](CC(C)C)NC(=O)CNC1=O [Compound 109] (Ac-C[dR]LPWNLQRIGLPC-NH2; disulfide 1-14) | 1.67 µM | > 50 µM | > 50 µM |  |
| Ac-DLMPWNLVAIGLLR-NH2 [Compound 59] |  |  |  | IC50 (PCSK9Δhelix; Example 7): > 49.5 µM; IC50 (His-EGF(A)-Fc; counterscreen, Example 7): > 50 µM; IC50 (PCSK9; Example 7): > 50 µM |
| CC[C@H](C)[C@H](NC(=O)[C@H](CCCCNC(=N)N)NC(=O)[C@@H](NC(=O)[C@H](CC(C)C)NC(=O)[C@H](CC(N)=O)NC(=O)[C@@H](N)Cc1c[nH]c2ccccc12)C(C)C)C(=O)NCC(=O)N[C@@H](CC(C)C)C(=O)N[C@@H](CC(C)C)C(=O)N[C@@H](CCC(N)=O)C(N)=O [Compound 237, WNLV(homoR)IGLLQ-NH2] (H-WNLV[hArg]IGLLQ-NH2) |  |  |  | IC50 (PCSK9Δhelix; Table 8E, additional compounds): 0.33 µM; IC50 (His-EGF(A)-Fc; [3]): 46 µM; IC50 (PCSK9; Table 8E, additional compounds): 8.8 µM |
| CCCCC(=O)N[C@@H](Cc1c[nH]c2ccccc12)C(=O)N[C@@H](CC(N)=O)C(=O)N[C@@H](CC(C)C)C(=O)N[C@H](C(=O)N[C@@H](CCCNC(=N)N)C(=O)N[C@H](C(=O)NCC(=O)N[C@@H](CC(C)C)C(=O)N[C@@H](CC(C)C)C(=O)N[C@@H](CCCNC(=N)N)C(=O)O)[C@@H](C)CC)C(C)C [Compound 152] (Pentanoyl-WNLVRIGLLR-OH) |  |  |  | IC50 (PCSK9Δhelix; Table 8E, additional compounds): 14 µM; IC50 (His-EGF(A)-Fc; [3]): ≥ 50 µM; IC50 (PCSK9; Table 8E, additional compounds): 43 µM |
| CC[C@H](C)[C@@H]1NC(=O)[C@H](CCCNC(=N)N)NC(=O)[C@H](CCCCN)NC(=O)[C@H](CC(C)C)NC(=O)[C@H](CC(N)=O)NC(=O)[C@H](Cc2c[nH]c3ccccc23)NC(=O)[C@@H](NC(C)=O)CSSC[C@@H](C(N)=O)NC(=O)CNC(=O)[C@H](CCC(N)=O)NC(=O)[C@H](CO)NC(=O)CNC1=O [Compound 21] (Ac-CWNLKRIGSQGC-NH2; disulfide 1-12) | > 50 µM | > 50 µM | > 50 µM |  |
